Data as given in paper PMC7155171, “Probing the Open Global Health Chemical Diversity Library for Multistage-Active Starting Points for Next-Generation Antimalarials” (ACS Infectious Diseases, 2020).
Like-named read-outs stand apart in the source and are kept apart here.

Assays:
[1] = test system: P. falciparum Dd2 (PfLuc) line expressing firefly luciferase, asexual blood stage; assay: microbe, parasite or virus in culture; format: cell-based, Plasmodium falciparum; details: Plasmodium falciparum
[2] = test system: P. falciparum (NF54) stage V gametocytes; assay: Stage V gametocyte viability assay (MitoTracker Red CMXRos high content imaging); format: cell-based, Plasmodium falciparum; details: Plasmodium falciparum, NF54, 72 h; for inhibition at 2 µM: read-out: Stg V Gam primary screen: Inhibition % (2uM) (n=2)
[3] = DD2, 8-pt dose response, 96hr, read-out: P. falciparum Luciferase ABS 8-pt Reconfirmation Dose Response (96hr): IC50
[4] = DD2, 8-pt dose response, 96hr, read-out: P. falciparum Luciferase ABS 8-pt Reconfirmation Dose Response (96hr): Maximum inhibition (%)
[5] = read-out: Stg V Gam dose response IC50 (µM) (n=3), 10-point dose response, n=3, 72 h
[6] = read-out: GAM V IC50, stage V gametocytes, 72 h

Compound	IC50 [2, 5]	inhibition at 2 µM [2]	IC50 [2, 6]	further results
CN(Cc1ccco1)C[C@H]1OC[C@@H]2CCN(Cc3ccccn3)C[C@@H]21 [DDD01033585, CN(C[C@H]1OC[C@@H]2CCN(CC3=CC=CC=N3)C[C@H]12)CC1=CC=CO1]	3.17 µM	76%		IC50 [1, 3]: 1.65 µM; Emax [1, 4]: 91.7%
Cc1cc(C)n(C2=NC(NCCC(C)C)c3c(sc4c3CCCC4)N2)n1 (stereo not shown) [DDD01037468, CC(C)CCNC1N=C(NC2=C1C1=C(CCCC1)S2)N1N=C(C)C=C1C]	> 10 µM			
Cc1cc(C)n(C2=NC(NCCCO)c3c(sc4c3CCCC4)N2)n1 (stereo not shown) [DDD01037469, CC1=NN(C(C)=C1)C1=NC(NCCCO)C2=C(N1)SC1=C2CCCC1]	0.39 µM	91.5%		
c1ccc(CCN2CCCC2c2cccc(Nc3nccs3)n2)cc1 (stereo not shown) [DDD01056785, C(CC1=CC=CC=C1)N1CCCC1C1=CC=CC(NC2=NC=CS2)=N1]	0.392 µM	73.4%	0.39 µM	
Cc1cnc(Nc2cccc(C3CCCN3Cc3cn(C)nc3C)n2)s1 (stereo not shown) [DDD01056825, CN1C=C(CN2CCCC2C2=NC(NC3=NC=C(C)S3)=CC=C2)C(C)=N1]	0.095 µM	85.8%	0.09 µM	
Cc1ccccc1CN1CCCC1c1cccc(Nc2nccs2)n1 (stereo not shown) [DDD01057017, CC1=CC=CC=C1CN1CCCC1C1=CC=CC(NC2=NC=CS2)=N1]	0.261 µM		0.26 µM	
Cc1cccc(CN2CCCC2c2cccc(Nc3nccs3)n2)c1 (stereo not shown) [DDD01057018, CC1=CC=CC(CN2CCCC2C2=CC=CC(NC3=NC=CS3)=N2)=C1]	0.115 µM	90.4%	0.12 µM	IC50 ([1]; DD2, read-out: CDD P. falciparum Luciferase ABS 11-pt Reconfirmation Dose Response (48hr): IC50 (μM), 11-pt dose response, 48hr): 0.914 µM; IC50 ([1]; DD2, 8-pt dose response, 96hr, read-out: CDD P. falciparum Luciferase ABS 8-pt Reconfirmation Dose Response (96hr): IC50): 1.04 µM; Emax ([1]; DD2, 8-pt dose response, 96hr, read-out: CDD P. falciparum Luciferase ABS 8-pt Reconfirmation Dose Response (96hr): Maximum inhibition (%)): 94.6%; Emax ([1]; DD2, 11-pt dose response, 48hr, read-out: CDD P. falciparum Luciferase ABS 11-pt Reconfirmation Dose Response (48hr): Maximum inhibition (%)): 93.5%; IC50 ([1]; DD2, 11-pt dose response, 96hr, read-out: CDD P. falciparum Luciferase ABS 11-pt Reconfirmation Dose Response (96hr): IC50): 0.53 µM; Emax ([1]; DD2, 11-pt dose response, 96hr, read-out: CDD P. falciparum Luciferase ABS 11-pt Reconfirmation Dose Response (96hr): Maximum inhibition (%)): 101%
Cc1nn(C)cc1CN1CCCC1c1cccc(Nc2nccs2)n1 (stereo not shown) [DDD01057079, CN1C=C(CN2CCCC2C2=CC=CC(NC3=NC=CS3)=N2)C(C)=N1]	0.578 µM	84.4%	0.58 µM	
COc1cccc(CN2CCCC2c2cncc(Nc3nncs3)n2)c1 (stereo not shown) [DDD01058609, COC1=CC=CC(CN2CCCC2C2=CN=CC(NC3=NN=CS3)=N2)=C1]	0.534 µM	63.5%	0.53 µM	
Cc1cccc(CN2CCCC2c2cncc(Nc3nncs3)n2)c1 (stereo not shown) [DDD01058843, CC1=CC=CC(CN2CCCC2C2=CN=CC(NC3=NN=CS3)=N2)=C1]	0.319 µM	78.8%	0.32 µM	
Cc1cccc(CNC(Cc2ccsc2)c2nc(C)c(C)s2)n1 (stereo not shown) [DDD01059048, CC1=C(C)N=C(S1)C(CC1=CSC=C1)NCC1=CC=CC(C)=N1]	3.9 µM	65.3%		
Cc1nc(Nc2ncccn2)cc(C2CCCN2CC(C)C)n1 (stereo not shown) [DDD01061131, CC(C)CN1CCCC1C1=CC(NC2=NC=CC=N2)=NC(C)=N1]	6.69 µM	66.6%		
Cn1cccc1CNCC1CCCn2cc(C(C)(C)C)nc21 (stereo not shown) [DDD01062585, CN1C=CC=C1CNCC1CCCN2C=C(N=C12)C(C)(C)C]	0.741 µM	74%	0.74 µM	
CC(C)(C)c1cn2c(n1)C(CNCc1cnn3ccccc13)CCC2 (stereo not shown) [DDD01062586, CC(C)(C)C1=CN2CCCC(CNCC3=C4C=CC=CN4N=C3)C2=N1]	0.11 µM	84.4%		
Cc1cn2c(n1)C(CNCc1cccc3c1OCO3)CCC2 (stereo not shown) [DDD01073293, CC1=CN2CCCC(CNCC3=CC=CC4=C3OCO4)C2=N1]	1.62 µM	66.7%		
CN(C)c1nc(N)nc(CN2CCCC2c2cccs2)n1 (stereo not shown) [DDD01075894, CN(C)C1=NC(N)=NC(CN2CCCC2C2=CC=CS2)=N1]	2.25 µM	66%		
CN(CCc1cccc2ccccc12)Cc1nc(N)nc(N(C)C)n1 [DDD01076782, CN(CCC1=C2C=CC=CC2=CC=C1)CC1=NC(N)=NC(=N1)N(C)C]	3.99 µM	74.3%		IC50 [1, 3]: 1.67 µM
CC(C)N(CCNC(=O)c1[nH]nc2ccc(I)cc12)C(C)C [DDD01078603, CC(C)N(CCNC(=O)C1=C2C=C(I)C=CC2=NN1)C(C)C]	> 10 µM	53.7%		
COc1c(C)cnc(CN(C)C2CCCCC2)c1C [DDD01078822, COC1=C(C)C=NC(CN(C)C2CCCCC2)=C1C]	1.45 µM	84.8%		
O=C(CN1CCc2sccc2C1)Nc1ccnc2ccnn12 [DDD01078865, O=C(CN1CCC2=C(C1)C=CS2)NC1=CC=NC2=CC=NN12]	0.116 µM	96.4%		
CN1CCC(NCC(O)c2cccc(OCc3ccccc3)c2)CC1 (stereo not shown) [DDD01079164, CN1CCC(CC1)NCC(O)C1=CC=CC(OCC2=CC=CC=C2)=C1]	6.06 µM	53.3%		

Compound	IC50 [2, 5]	inhibition at 2 µM [2]	IC50 [2, 6]	further results
Cc1cccc(CN2CCCn3c(nnc3Cn3cccn3)C2)n1 [DDD01084631, CC1=CC=CC(CN2CCCN3C(CN4C=CC=N4)=NN=C3C2)=N1]	1.04 µM	51.5%		
O=C(C1CC2(CCNCC2)CN1)N1CCN(c2cccc(Cl)c2Cl)CC1 (stereo not shown) [DDD01243908, ClC1=CC=CC(N2CCN(CC2)C(=O)C2CC3(CN2)CCNCC3)=C1Cl]	4.94 µM	52.8%		
COCC(C)NCc1nc(-c2ccc(C)cc2)c(-c2ccccn2)[nH]1 (stereo not shown) [DDD01244737, COCC(C)NCC1=NC(=C(N1)C1=CC=C(C)C=C1)C1=CC=CC=N1]	1.64 µM	72.4%	1.64 µM	
Fc1ccc2[nH]c(C3CCCN3Cc3c[nH]cn3)nc2c1 (stereo not shown) [DDD01245473, FC1=CC=C2N=C(NC2=C1)C1CCCN1CC1=CN=CN1]	1.88 µM	53.9%		
CCSCC(C)NCc1cn2ccccc2n1 (stereo not shown) [DDD01245879, CCSCC(C)NCC1=CN2C=CC=CC2=N1]	1.71 µM	74%		
CC(c1cccs1)N(C)Cc1cnc(-c2ccccn2)nc1 (stereo not shown) [DDD01246628, CC(N(C)CC1=CN=C(N=C1)C1=CC=CC=N1)C1=CC=CS1]	0.293 µM	81.7%		
Cc1ccc2nc(CN(C)Cc3n[nH]c4c3CCCCC4)[nH]c2c1C [DDD01247714, CN(CC1=NC2=CC=C(C)C(C)=C2N1)CC1=C2CCCCCC2=NN1]	1.62 µM	89.8%		
CNc1cc(C)nc(NCc2cc(C)cc3c(C)c(C)[nH]c23)n1 [DDD01248198, CNC1=CC(C)=NC(NCC2=C3NC(C)=C(C)C3=CC(C)=C2)=N1]	0.791 µM	70.7%	0.79 µM	
COCc1noc(-c2ccc(N(C)Cc3ncccc3C)nc2)n1 [DDD01248427, COCC1=NOC(=N1)C1=CC=C(N=C1)N(C)CC1=NC=CC=C1C]	1.02 µM	58.1%		
CSc1ccc(-c2nc(CN3CCC(CN)C3)c(C)o2)cc1 (stereo not shown) [DDD01250168, CSC1=CC=C(C=C1)C1=NC(CN2CCC(CN)C2)=C(C)O1]	2.42 µM	63%		IC50 [1, 3]: 1.6 µM; Emax [1, 4]: 93.1%
CCN(CCN(C)C)c1nc(CCN)nc2sc(C)c(C)c12 [DDD01251823, CCN(CCN(C)C)C1=C2C(C)=C(C)SC2=NC(CCN)=N1]	4.42 µM	58.8%		IC50 [1, 3]: 1.8 µM; Emax [1, 4]: 92.8%
Cc1ccc(-c2nc(CNC(C)CCO)[nH]c2-c2ccccn2)cc1 (stereo not shown) [DDD01253542, CC(CCO)NCC1=NC(=C(N1)C1=CC=C(C)C=C1)C1=CC=CC=N1]	1.09 µM	70.9%	1.09 µM	IC50 [1, 3]: 1.81 µM
CCSCCNc1nc(-c2ccccn2)nc2c1c(C)nn2C [DDD01253625, CCSCCNC1=C2C(C)=NN(C)C2=NC(=N1)C1=CC=CC=N1]	1.89 µM	58.4%	1.88 µM	
Cc1nn(C)c2nc(-c3ccccn3)nc(NCCCOC(C)C)c12 [DDD01254389, CC(C)OCCCNC1=C2C(C)=NN(C)C2=NC(=N1)C1=CC=CC=N1]	1.71 µM	61.4%	1.71 µM	
Cc1cc(CN(C)c2nc(-c3ccccn3)nc3c2CCNCC3)n[nH]1 [DDD01255965, CN(CC1=CC(C)=NN1)C1=NC(=NC2=C1CCNCC2)C1=CC=CC=N1]	0.875 µM	61.9%	0.88 µM	IC50 ([1]; 96 h incubation, Dd2 luciferase, read-out: 96 hour Pfluc IC50): > 10 µM
Cc1cc2nc(C(C)C)cc(NCC(c3ccccn3)N(C)C)n2n1 (stereo not shown) [DDD01256956, CC(C)C1=NC2=CC(C)=NN2C(NCC(N(C)C)C2=CC=CC=N2)=C1]	0.933 µM	64.8%		
Cc1cnc2c(S(=O)(=O)NC3CCS(=O)(=O)C3)cccc2c1 (stereo not shown) [DDD01296003, CC1=CN=C2C(C=CC=C2S(=O)(=O)NC2CCS(=O)(=O)C2)=C1]	2.28 µM	76.3%		
COc1cc(CNC(c2ccccc2)c2nccn2C)cc(OC)c1 (stereo not shown) [DDD01296506, COC1=CC(OC)=CC(CNC(C2=NC=CN2C)C2=CC=CC=C2)=C1]	0.513 µM	58.3%		
Cc1cnn(CC2CCCN2Cc2nc(C)c3ccccc3n2)c1 (stereo not shown) [DDD01298810, CC1=CN(CC2CCCN2CC2=NC(C)=C3C=CC=CC3=N2)N=C1]	0.296 µM	51.9%		
Cc1nnc(NCc2ccccc2Cl)c(C#N)c1C [DDD01302395, CC1=NN=C(NCC2=CC=CC=C2Cl)C(C#N)=C1C]	> 9.58 µM	68.1%		
